Five compounds from publication PMC4199771, “Novel Cyclic di-GMP Effectors of the YajQ Protein Family Control Bacterial Virulence” (PLoS Pathogens, 2014) can be followed below.

The target of data set [1] is T1, XC_3703 (Xanthomonas campestris, UniProt Q4UQD0).
T1 construct: full-length, synthesized gene in pET47b, E. coli BL21(DE3), N-terminal His6 tag cut by 3C protease
Kind of data set: isothermal titration calorimetry. In kind it is binding.

The target of a further data set is T2, YajQ (Escherichia coli, UniProt P0A8E7).
T2 construct: recombinant, N-terminal His6 tag cleaved with 3C protease
T2 sequence (P0A8E7 whole entry): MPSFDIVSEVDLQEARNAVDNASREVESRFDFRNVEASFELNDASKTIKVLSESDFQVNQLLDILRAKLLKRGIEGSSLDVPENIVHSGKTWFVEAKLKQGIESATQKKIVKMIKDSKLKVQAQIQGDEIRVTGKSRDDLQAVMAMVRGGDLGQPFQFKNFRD
Kind of data set: biochemical. More on the design: isothermal titration calorimetry of nucleotide binding to purified recombinant YajQ family protein. How it is done:
(§1) The ability of XC_3703 to bind different nucleotides including cyclic di-GMP was further examined using isothermal titration calorimetry (ITC) with the purified protein (see Materials and Methods ). The full-length XC_3703 protein bound cyclic di-GMP with high affinity with a K d of 2 µM (Figure 1B; Table S2). It appeared that binding was endothermic in nature, which is a characteristic of a binding mechanism that favours hydrogen bonding and hydrophobic interactions, [16]. […] The observed binding affinity is within the range of physiological cyclic di-GMP levels observed in Xcc and is similar to the binding affinity of a number of established cyclic di-GMP effector proteins. […] To examine whether cyclic di-GMP binding was a common feature of this family, recombinant YajQ-like proteins from various bacteria including Escherichia coli, Pseudomonas aeruginosa, Stenotrophomonas maltophilia, Bacillus cereus and Clostridium species were purified and their ability to bind different nucleotides was assessed. […] The DNA fragments encoding the proteins of interest were synthesized by Gene Oracle in pGOv4 and sub-cloned into pET47b or pLAFR3 before transformation into E. coli BL21 (DE3). Genomic regions are described in Table S7. BL21 (DE3) cells were grown in LB media and induced with 0.25 mM IPTG; protein overexpression was carried out at 37°C for 1 h. Purification was achieved by Ni^2+ affinity chromatography using the N-terminal His6 tag followed by tag cleavage using recombinant 3C protease.

Another data set concerns the target T3, Clocel_3875 (Clostridium cellulovorans, UniProt D9SKW9).
T3 construct: recombinant, N-terminal His6 tag cleaved with 3C protease
As to the kind of experiment: biochemical. More on the design: isothermal titration calorimetry of nucleotide binding to purified recombinant YajQ family protein. How it is done:
as §1

Another data set has as its target T4, Smlt4090 (Stenotrophomonas maltophilia, UniProt B2FHW7).
T4 construct: recombinant, synthesized gene in pET47b, E. coli BL21(DE3), N-terminal His6 tag cut by 3C protease
Kind of data set: isothermal titration calorimetry. In kind it is binding. The source says:
isothermal titration calorimetry on Smlt4090 | YajQ family proteins from P. aeruginosa (PA4395) and S. maltophilia (Smlt4090)

Another data set deals with T5, PA4395 (Pseudomonas aeruginosa, UniProt Q9HW11).
T5 construct: recombinant, synthesized gene in pET47b, E. coli BL21(DE3), N-terminal His6 tag cut by 3C protease; locus tag is of strain PAO1 (PA14 used in mice)
T5 sequence (Q9HW11 whole entry): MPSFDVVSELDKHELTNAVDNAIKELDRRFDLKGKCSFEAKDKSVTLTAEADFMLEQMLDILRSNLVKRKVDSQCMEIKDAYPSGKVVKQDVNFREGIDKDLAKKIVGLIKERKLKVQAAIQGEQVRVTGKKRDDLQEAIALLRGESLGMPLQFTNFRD
As to the kind of experiment: isothermal titration calorimetry. The format is binding. The source says:
isothermal titration calorimetry on PA4395 | affinity for cyclic di-GMP binding was only seen in YajQ family proteins from P. aeruginosa (PA4395)

Data set [2] has as its target T1, XC_3703. As to the kind of experiment: biochemical. More on the design: isothermal titration calorimetry of nucleotide binding to purified recombinant YajQ family protein. How it is done: as §1
In data set [3] the target is T6, XC_3703 (YajQ family) (Xanthomonas campestris pv. campestris 8004) (UniProt Q4UQD0).
T6 sequence: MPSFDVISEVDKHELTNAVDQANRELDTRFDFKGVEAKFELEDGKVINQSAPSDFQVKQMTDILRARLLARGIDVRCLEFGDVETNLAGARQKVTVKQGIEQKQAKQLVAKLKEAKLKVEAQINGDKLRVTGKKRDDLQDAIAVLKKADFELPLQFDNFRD
Kind of data set: EMSA.

T3 sequence (D9SKW9 entry or part of it): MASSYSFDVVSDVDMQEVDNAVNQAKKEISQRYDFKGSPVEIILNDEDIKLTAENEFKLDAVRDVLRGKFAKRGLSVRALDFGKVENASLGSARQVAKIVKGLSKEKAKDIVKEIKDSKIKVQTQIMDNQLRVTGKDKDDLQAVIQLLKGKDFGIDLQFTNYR
T4 sequence (B2FHW7 whole entry): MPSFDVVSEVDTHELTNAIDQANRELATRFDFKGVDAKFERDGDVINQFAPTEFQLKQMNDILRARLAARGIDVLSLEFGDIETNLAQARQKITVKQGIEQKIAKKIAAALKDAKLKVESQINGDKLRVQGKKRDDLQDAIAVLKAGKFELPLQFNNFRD

Take `Nc1ncnc2c1ncn2[C@@H]1O[C@H](COP(=O)(O)OP(=O)(O)OP(=O)(O)O)[C@@H](O)[C@H]1O` [ATP]: the Kd was found to be 3000 µM at XC_3703 [1] (read-out: Kd), 28.2 µM on YajQ and 21.1 µM at Clocel_3875.
With `Nc1nc2c(ncn2[C@@H]2O[C@H](COP(=O)(O)OP(=O)(O)OP(=O)(O)O)[C@@H](O)[C@H]2O)c(=O)[nH]1` [GTP], the Kd was 13000 µM on XC_3703 [1] (read-out: Kd), 34.3 µM at YajQ and 31 µM at Clocel_3875.
In the case of `Nc1ncnc2c1ncn2[C@@H]1O[C@@H]2COP(=O)(O)O[C@H]3[C@@H](O)[C@H](n4cnc5c(N)ncnc54)O[C@@H]3COP(=O)(O)O[C@H]2[C@H]1O` [cyclic di-AMP], the Kd at XC_3703 [1] is 900 µM.
Regarding `Nc1nc2c(ncn2[C@@H]2O[C@@H]3CO[P@](=O)(O)O[C@H]4[C@@H](O)[C@H](n5cnc6c(=O)[nH]c(N)nc65)O[C@@H]4CO[P@](=O)(O)O[C@H]3[C@H]2O)c(=O)[nH]1` [cyclic di-GMP], the Kd stood at 7.91 µM at Smlt4090, 6.98 µM on PA4395, 2 µM at XC_3703 [1] and 2.2 µM on XC_3703 [2].
In the case of “GGCATCGAACCGGCCGCACGTTTCGCGGCTGTTGTGCAGTGAATACGTATGCACAGGGTCAATGCTGCGCCGCGATGCGCGCTTAGCATCACCGCGCGCCGCACGCCGTGGGGCGCGCTTTCCGGAACAGGGGCCGGAGGGCATTGCTGCATGCATCGCTGTGCGGGATGCGTGCGTCCACTGATCAGGAGACACACCCG (double strand) [aaeB promoter probe]”, the binding result in data set [3] is reported as “no binding”.
